Assays:
T24 cell line = experiment: Cytotoxicity MTS assay, T24 cell line; format: cell-based; settings: for OD490 Mean / OD490 Well 1 / OD490 Well 2 / OD490 Well 3: T24 cell line, first assay;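 on OD490 Mean: blank control wells received 0.025% DMSO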;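 on OD490 Well 1: blank control wells received 0.025% DMSO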;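 on OD490 Well 2: blank control wells received 0.025% DMSO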;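 on OD490 Well 3: blank control wells received 0.025% DMSO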
Procedure, shortened: (§1)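 Cells seeded at 1000 per well, grown 24 h, then exposed to compound (0.5–100 µM final) for 24 h with 0.025% DMSO blank. MTS reagent added for 2 h at 37 °C, absorbance read at 490 nm; IC50 from non-linear regression of % viability versus concentration, three independent duplicate experiments.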

Caco-2 cell line = experiment: Cytotoxicity MTS assay, Caco-2 cell line; format: cell-based; settings: for OD490 Mean / OD490 Well 1 / OD490 Well 2 / OD490 Well 3: Caco-2 cell line
Procedure, shortened: as §1

Which IC50 (T24 cell line; MTS assay, 24 h exposure) does the source give for `CCOC(=O)c1c(C2NC(=O)NC(C)=C2C(=O)Nc2ccccc2)[nH]c(C(=O)OC)c1C` (centres unmarked) [D10] here?
The IC50 was > 150 µM.

And the “OD490 Mean” value (T24 cell line; 0.5μM)?
Its value is 1.3759.

And the “OD490 Well 1” value (T24 cell line; 0.5μM)?
Its value is 1.3871.

What about the “OD490 Well 2” value (T24 cell line; 0.5μM) of the same molecule?
The value was 1.3651.

What about the “OD490 Well 3” value (T24 cell line; 0.5μM) of the same molecule?
Its value is 1.3756.

What about the “OD490 Mean” value (T24 cell line; 1μM) of the same molecule?
The value was 1.3764.

And the “OD490 Well 1” value (T24 cell line; 1μM)?
Its value is 1.2835.

And the “OD490 Well 2” value (T24 cell line; 1μM)?
Its value is 1.4515.

What about the “OD490 Well 3” value (T24 cell line; 1μM) of the same molecule?
Its value is 1.3943.

And the “OD490 Mean” value (T24 cell line; 10μM)?
The value was 1.4610.

What about the “OD490 Well 1” value (T24 cell line; 10μM) of the same molecule?
Its value is 1.3272.

And the “OD490 Well 2” value (T24 cell line; 10μM)?
Its value is 1.6117.

And the “OD490 Well 3” value (T24 cell line; 10μM)?
The value was 1.4442.

What about the “OD490 Mean” value (T24 cell line; 25μM) of the same molecule?
The value was 1.4209.

And the “OD490 Well 1” value (T24 cell line; 25μM)?
Its value is 1.3594.

What about the “OD490 Well 2” value (T24 cell line; 25μM) of the same molecule?
Its value is 1.6346.

What about the “OD490 Well 3” value (T24 cell line; 25μM) of the same molecule?
Its value is 1.2686.

What about the “OD490 Mean” value (T24 cell line; 50μM) of the same molecule?
The value was 1.2169.

And the “OD490 Well 1” value (T24 cell line; 50μM)?
The value was 1.1849.

And the “OD490 Well 2” value (T24 cell line; 50μM)?
Its value is 1.3216.

What about the “OD490 Well 3” value (T24 cell line; 50μM) of the same molecule?
Its value is 1.1441.

What about the “OD490 Mean” value (T24 cell line; 100μM) of the same molecule?
The value was 1.1356.

And the “OD490 Well 1” value (T24 cell line; 100μM)?
The value was 1.2013.

And the “OD490 Well 2” value (T24 cell line; 100μM)?
The value was 1.0672.

And the “OD490 Well 3” value (T24 cell line; 100μM)?
Its value is 1.1383.

What about the “OD490 Mean” value (Caco-2 cell line; 0.5μM, first assay) of the same molecule?
Its value is 0.4742.

And the “OD490 Well 1” value (Caco-2 cell line; 0.5μM, first assay)?
The value was 0.4527.

And the “OD490 Well 2” value (Caco-2 cell line; 0.5μM, first assay)?
The value was 0.4966.

And the “OD490 Well 3” value (Caco-2 cell line; 0.5μM, first assay)?
Its value is 0.4734.

What about the “OD490 Mean” value (Caco-2 cell line; 0.5μM, second assay) of the same molecule?
The value was 0.5530.

And the “OD490 Well 1” value (Caco-2 cell line; 0.5μM, second assay)?
Its value is 0.531.

What about the “OD490 Well 2” value (Caco-2 cell line; 0.5μM, second assay) of the same molecule?
The value was 0.6234.

What about the “OD490 Well 3” value (Caco-2 cell line; 0.5μM, second assay) of the same molecule?
The value was 0.5045.

And the “OD490 Mean” value (Caco-2 cell line; 0.5μM, third assay)?
Its value is 0.6289.

And the “OD490 Well 1” value (Caco-2 cell line; 0.5μM, third assay)?
Its value is 0.6132.

What about the “OD490 Well 2” value (Caco-2 cell line; 0.5μM, third assay) of the same molecule?
The value was 0.6414.

And the “OD490 Well 3” value (Caco-2 cell line; 0.5μM, third assay)?
The value was 0.6321.

What about the “OD490 Mean” value (Caco-2 cell line; 1μM, first assay) of the same molecule?
The value was 0.5016.

And the “OD490 Well 1” value (Caco-2 cell line; 1μM, first assay)?
The value was 0.5182.

And the “OD490 Well 2” value (Caco-2 cell line; 1μM, first assay)?
The value was 0.4910.

What about the “OD490 Well 3” value (Caco-2 cell line; 1μM, first assay) of the same molecule?
Its value is 0.4957.

What about the “OD490 Mean” value (Caco-2 cell line; 1μM, second assay) of the same molecule?
The value was 0.6121.

And the “OD490 Well 1” value (Caco-2 cell line; 1μM, second assay)?
Its value is 0.5315.

What about the “OD490 Well 2” value (Caco-2 cell line; 1μM, second assay) of the same molecule?
Its value is 0.6788.

And the “OD490 Well 3” value (Caco-2 cell line; 1μM, second assay)?
The value was 0.626.

And the “OD490 Mean” value (Caco-2 cell line; 1μM, third assay)?
The value was 0.6367.

What about the “OD490 Well 1” value (Caco-2 cell line; 1μM, third assay) of the same molecule?
The value was 0.6031.

What about the “OD490 Well 2” value (Caco-2 cell line; 1μM, third assay) of the same molecule?
Its value is 0.6621.

What about the “OD490 Well 3” value (Caco-2 cell line; 1μM, third assay) of the same molecule?
Its value is 0.6449.

And the “OD490 Mean” value (Caco-2 cell line; 10μM, first assay)?
Its value is 0.4933.

What about the “OD490 Well 1” value (Caco-2 cell line; 10μM, first assay) of the same molecule?
The value was 0.4499.

What about the “OD490 Well 2” value (Caco-2 cell line; 10μM, first assay) of the same molecule?
Its value is 0.5248.

What about the “OD490 Well 3” value (Caco-2 cell line; 10μM, first assay) of the same molecule?
Its value is 0.5052.

And the “OD490 Mean” value (Caco-2 cell line; 10μM, second assay)?
Its value is 0.5658.

What about the “OD490 Well 1” value (Caco-2 cell line; 10μM, second assay) of the same molecule?
The value was 0.6.

What about the “OD490 Well 2” value (Caco-2 cell line; 10μM, second assay) of the same molecule?
The value was 0.624.

What about the “OD490 Well 3” value (Caco-2 cell line; 10μM, second assay) of the same molecule?
Its value is 0.4735.

What about the “OD490 Mean” value (Caco-2 cell line; 10μM, third assay) of the same molecule?
The value was 0.6081.

What about the “OD490 Well 1” value (Caco-2 cell line; 10μM, third assay) of the same molecule?
The value was 0.6012.

And the “OD490 Well 2” value (Caco-2 cell line; 10μM, third assay)?
The value was 0.6321.

What about the “OD490 Well 3” value (Caco-2 cell line; 10μM, third assay) of the same molecule?
Its value is 0.5911.

What about the “OD490 Mean” value (Caco-2 cell line; 25μM, first assay) of the same molecule?
The value was 0.4730.

What about the “OD490 Well 1” value (Caco-2 cell line; 25μM, first assay) of the same molecule?
Its value is 0.3491.

And the “OD490 Well 2” value (Caco-2 cell line; 25μM, first assay)?
Its value is 0.5643.

And the “OD490 Well 3” value (Caco-2 cell line; 25μM, first assay)?
Its value is 0.5057.

What about the “OD490 Mean” value (Caco-2 cell line; 25μM, second assay) of the same molecule?
The value was 0.5406.

And the “OD490 Well 1” value (Caco-2 cell line; 25μM, second assay)?
The value was 0.5132.

And the “OD490 Well 2” value (Caco-2 cell line; 25μM, second assay)?
The value was 0.5889.

What about the “OD490 Well 3” value (Caco-2 cell line; 25μM, second assay) of the same molecule?
Its value is 0.5197.

And the “OD490 Mean” value (Caco-2 cell line; 25μM, third assay)?
The value was 0.5321.

What about the “OD490 Well 1” value (Caco-2 cell line; 25μM, third assay) of the same molecule?
Its value is 0.5365.

What about the “OD490 Well 2” value (Caco-2 cell line; 25μM, third assay) of the same molecule?
Its value is 0.4987.

What about the “OD490 Well 3” value (Caco-2 cell line; 25μM, third assay) of the same molecule?
Its value is 0.5612.

And the “OD490 Mean” value (Caco-2 cell line; 50μM, first assay)?
The value was 0.4403.

And the “OD490 Well 1” value (Caco-2 cell line; 50μM, first assay)?
Its value is 0.3579.

And the “OD490 Well 2” value (Caco-2 cell line; 50μM, first assay)?
Its value is 0.5436.

What about the “OD490 Well 3” value (Caco-2 cell line; 50μM, first assay) of the same molecule?
Its value is 0.4193.

What about the “OD490 Mean” value (Caco-2 cell line; 50μM, second assay) of the same molecule?
Its value is 0.4763.

And the “OD490 Well 1” value (Caco-2 cell line; 50μM, second assay)?
Its value is 0.4113.

What about the “OD490 Well 2” value (Caco-2 cell line; 50μM, second assay) of the same molecule?
The value was 0.5208.

And the “OD490 Well 3” value (Caco-2 cell line; 50μM, second assay)?
The value was 0.4969.

What about the “OD490 Mean” value (Caco-2 cell line; 50μM, third assay) of the same molecule?
The value was 0.4757.

What about the “OD490 Well 1” value (Caco-2 cell line; 50μM, third assay) of the same molecule?
Its value is 0.4698.

What about the “OD490 Well 2” value (Caco-2 cell line; 50μM, third assay) of the same molecule?
Its value is 0.4875.

What about the “OD490 Well 3” value (Caco-2 cell line; 50μM, third assay) of the same molecule?
Its value is 0.4698.

What about the “OD490 Mean” value (Caco-2 cell line; 100μM, first assay) of the same molecule?
Its value is 0.4342.

And the “OD490 Well 1” value (Caco-2 cell line; 100μM, first assay)?
Its value is 0.3369.

And the “OD490 Well 2” value (Caco-2 cell line; 100μM, first assay)?
Its value is 0.4685.

And the “OD490 Well 3” value (Caco-2 cell line; 100μM, first assay)?
The value was 0.4971.

And the “OD490 Mean” value (Caco-2 cell line; 100μM, second assay)?
Its value is 0.4596.

And the “OD490 Well 1” value (Caco-2 cell line; 100μM, second assay)?
The value was 0.4737.

What about the “OD490 Well 2” value (Caco-2 cell line; 100μM, second assay) of the same molecule?
The value was 0.4587.

And the “OD490 Well 3” value (Caco-2 cell line; 100μM, second assay)?
Its value is 0.4463.

And the “OD490 Mean” value (Caco-2 cell line; 100μM, third assay)?
Its value is 0.4349.

What about the “OD490 Well 1” value (Caco-2 cell line; 100μM, third assay) of the same molecule?
The value was 0.4356.

And the “OD490 Well 2” value (Caco-2 cell line; 100μM, third assay)?
The value was 0.4169.

And the “OD490 Well 3” value (Caco-2 cell line; 100μM, third assay)?
Its value is 0.4521.

And the IC50 (Caco-2 cell line; MTS assay, 24 h exposure)?
The IC50 was 108 µM.
